Where “and” joins values, the source holds several entries; their conditions need not be identical. Equal entries are not always repeated. Entries after “also recorded” stand apart in the source; their conditions may differ. Where two headings read alike, the source gives them in different places.
Experiments:
CD1 mice ileal mucosa = format: cell-based, mouse
[1] = in vivo
CFTR knock-out mice = settings: mouse, in vivo
CD1 mice = settings: mouse, in vivo
[2] = tested on: infectious SA11 rotavirus; settings: mouse, in vivo
19 day old pups = settings: mouse, in vivo
insect cells = settings: cited from earlier work
Balb/C mice = settings: mouse, in vivo, ip
mice [3] = settings: mouse, in vivo
mice [4] = settings: mouse, in vivo; cited from earlier work
full-length NSP4 = tested on: full-length NSP4; parameters: species or system simian rotavirus SA11; settings: in vivo, sc
SA11 VP6 = SA11 VP6 (Rotavirus A, UniProt P03531); parameters: species or system simian rotavirus SA11; settings: in vivo
SA11 VP6, sequence (P03531 whole entry, looked up): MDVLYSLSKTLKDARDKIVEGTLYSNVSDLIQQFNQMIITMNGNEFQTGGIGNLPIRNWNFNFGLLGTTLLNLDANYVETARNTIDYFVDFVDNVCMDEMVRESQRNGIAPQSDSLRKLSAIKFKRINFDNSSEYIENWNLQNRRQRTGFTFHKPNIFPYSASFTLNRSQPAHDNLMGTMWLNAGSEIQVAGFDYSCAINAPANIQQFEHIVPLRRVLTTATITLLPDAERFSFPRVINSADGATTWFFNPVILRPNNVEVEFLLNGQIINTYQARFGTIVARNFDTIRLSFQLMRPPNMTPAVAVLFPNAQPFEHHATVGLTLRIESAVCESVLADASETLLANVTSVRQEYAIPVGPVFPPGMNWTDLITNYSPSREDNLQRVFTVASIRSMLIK

simian rotavirus SA11 = settings: mouse, in vivo
murine rotavirus ECwt = settings: mouse, in vivo

C[N+](C)(C)CCOC(N)=O [Carbachol (Cch), carbachol]
Isc with FSK (potentiated effect of FSK) (CD1 mice ileal mucosa): 64 μA/cm^2 | increase in mucosal Isc after FSK pretreatment (CD1 mice ileal mucosa): 63 μA/cm2 | ▴ISC (CD1 mice ileal mucosa): 9 ± 2 μA/cm^2 and 14 ± 4 μA/cm^2

C=C[C@@]1(C)CC(=O)[C@]2(O)[C@@]3(C)[C@@H](O)CCC(C)(C)[C@@H]3[C@H](O)[C@H](OC(C)=O)[C@@]2(C)O1 [Forskolin (FSK), forskolin]
▴ISC (CD1 mice ileal mucosa): 44 ± 0.7 μA/cm^2 and 41 ± 7 μA/cm^2

DKLTTREIEQVELLKRIYDKLT [NSP4 114-135]
weight lower than normal animals [1]: 20-30% | % of animals with diarrhea (CFTR knock-out mice): 80% | increase in mucosal Isc after FSK pretreatment (CD1 mice ileal mucosa): 64 μA/cm2 | time frame of diarrhea induction (CD1 mice): about 3 hrs | # responders/total # tested (CD1 mice; ip): 8/12 | % Diarrhea (CD1 mice; ip): 67% | DD50 (50% diarrheal dose) (CD1 mice; ip): 79 nmol | diarrhea typically continued for (CD1 mice; ip): up to 8 hr | % pups with diarrhea, 2 days [2]: 17% | % pups with diarrhea, 3 days [2]: 0% | % pups with diarrhea, Total [2]: 42% | pups with diarrhea/total pups, 2 days [2]: (2/12) | pups with diarrhea/total pups, 3 days [2]: (0/12) | pups with diarrhea/total pups, Total [2]: (5/12) | diarrhea (19 day old pups): no diarrhea was seen | intestinal fluid accumulation (19 day old pups): significant fluid accumulation | intracellular calcium in insect cells (insect cells): mobilize intracellular calcium levels | % Diarrhea (Balb/C mice): 100% and 80%

DTGRNLGEFKAYPDGFLTCV [NV 464-483]
# responders/total # tested (CD1 mice; ip): 0/10 | % Diarrhea (CD1 mice; ip): 0% | symptoms with control peptides (CD1 mice; ip): No symptoms

EIEQVELLKRIYDKLTVQTTGEIDMTKE [NSP4 120-147]
% animals with diarrhea (mice [3]): 88% | animals with diarrhea (mice [3]): 7 out of 8 | animals with severe diarrhea (mice [3]): 5 of 5

EKLTDLNYTLSVITLMNNTLH [NSP4 2-22]
# responders/total # tested (CD1 mice; ip): 0/11 | % Diarrhea (CD1 mice; ip): 0% | symptoms with control peptides (CD1 mice; ip): No symptoms | % pups with diarrhea, 2 days [2]: 63% | % pups with diarrhea, 3 days [2]: 25% | % pups with diarrhea, Total [2]: 100% | pups with diarrhea/total pups, 2 days [2]: (10/16) | pups with diarrhea/total pups, 3 days [2]: (4/16) | pups with diarrhea/total pups, Total [2]: (16/16)

MIDKLTTREI EQVELL KRIYDKLTVQTTGEIDMTKEINQKNVRTLEEWESGKNPYEPKEVTAAM [NSP4 112-175]
enterotoxin activity (mice [4]): has enterotoxin activity in mice

QS-21
serum antibody geometric mean titers (GMT) to NSP4 full-length in dams (full-length NSP4): lacked antibody | serum antibody titers to VP6 in dams (GMT) (SA11 VP6): 2×10^3 | Mean diarrhea score (simian rotavirus SA11): 3.5 and 3.3 | Pups with diarrhea % at indicated DPI: 3 (simian rotavirus SA11): 100% | Pups with diarrhea % at indicated DPI: 4 (simian rotavirus SA11): 56% | Pups with diarrhea/total at DPI 2 (simian rotavirus SA11): (8/12); also recorded: (3/9) | Pups with diarrhea/total at DPI 3 (simian rotavirus SA11): (12/12); also recorded: (9/9) | Pups with diarrhea/total at DPI 4 (simian rotavirus SA11): (4/12); also recorded: (5/9) | Pups with diarrhea/total at DPI 7 (simian rotavirus SA11): (12/12); also recorded: (9/9) | duration of diarrhea (simian rotavirus SA11): at least two days | Pups with diarrhea % at indicated DPI: 2 (simian rotavirus SA11; po): 76% | Pups with diarrhea % at indicated DPI: 3 (simian rotavirus SA11; po): 100% | Pups with diarrhea % at indicated DPI: 4 (simian rotavirus SA11; po): 33% | Mean diarrhea score (murine rotavirus ECwt): 3.3 | Pups with diarrhea % at indicated DPI: 0-8 (murine rotavirus ECwt): 100% | Pups with diarrhea % at indicated DPI: 2 (murine rotavirus ECwt): 29% | Pups with diarrhea % at indicated DPI: 3 (murine rotavirus ECwt): 100% | Pups with diarrhea % at indicated DPI: 4 (murine rotavirus ECwt): 100% | Pups with diarrhea % at indicated DPI: 5 (murine rotavirus ECwt): 100% | Pups with diarrhea % at indicated DPI: 6 (murine rotavirus ECwt): 86% | Pups with diarrhea % at indicated DPI: 7 (murine rotavirus ECwt): 71% | Pups with diarrhea % at indicated DPI: 8 (murine rotavirus ECwt): 14% | Pups with diarrhea/total at DPI 0-8 (murine rotavirus ECwt): (7/7) | Pups with diarrhea/total at DPI 2 (murine rotavirus ECwt): (2/7) | Pups with diarrhea/total at DPI 3 (murine rotavirus ECwt): (7/7) | Pups with diarrhea/total at DPI 4 (murine rotavirus ECwt): (7/7) | Pups with diarrhea/total at DPI 5 (murine rotavirus ECwt): (7/7) | Pups with diarrhea/total at DPI 6 (murine rotavirus ECwt): (6/7) | Pups with diarrhea/total at DPI 7 (murine rotavirus ECwt): (5/7) | Pups with diarrhea/total at DPI 8 (murine rotavirus ECwt): (1/7)

TKDEIEKQMDRVVKEMRRQLEMIDKLTTREIEQ [NSP4 90-123]
# responders/total # tested (CD1 mice; ip): 2/10 | % Diarrhea (CD1 mice; ip): 20%

Source: patent US6673355B1 (priority 1995, dated 2004)
